Laboratory results as given in the supplement of paper PMC10307832.

How the values were obtained:
Experiment in all cases: relative viability (nuclei count vs DMSO), 5 days (fraction); higher = more cells survive
201T = system: 201T
In short: (§1)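 Relative viability equals treated-well nuclei counts divided by vehicle-well nuclei counts. Counts came from 4× images of lung cancer cell lines grown in 1536-well plates for 5 days after pin-tool dosing on the day after seeding. Dosing used one drug alone or a fixed anchor-drug dose plus five library-drug doses (not always all listed) in √10 steps, and values are medians of duplicate plates.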

BEN = system: BEN
In short: as §1

COR-L 105 = system: COR-L 105
In short: as §1

COR-L23 = system: COR-L23
In short: as §1

EKVX = system: EKVX
In short: as §1

EMC-BAC-2 = system: EMC-BAC-2
In short: as §1

HCC-15 = system: HCC-15
In short: as §1

HCC-366 = system: HCC-366
In short: as §1

HCC-78 = system: HCC-78
In short: as §1

HOP-62 = system: HOP-62
In short: as §1

LK-2 = system: LK-2
In short: as §1

NCI-H1563 = system: NCI-H1563
In short: as §1

NCI-H1734 = system: NCI-H1734
In short: as §1

NCI-H1915 = system: NCI-H1915
In short: as §1

NCI-H1993 = system: NCI-H1993
In short: as §1

NCI-H2405 = system: NCI-H2405
In short: as §1

NCI-H460 = system: NCI-H460
In short: as §1

NCI-H522 = system: NCI-H522
In short: as §1

NCI-H647 = system: NCI-H647
In short: as §1

NCI-H661 = system: NCI-H661
In short: as §1

PC-14 = system: PC-14
In short: as §1

SK-MES-1 = system: SK-MES-1
In short: as §1

Compound Cc1cn(-c2cc(NC(=O)c3ccc(C)c(Nc4nccc(-c5cccnc5)n4)c3)cc(C(F)(F)F)c2)cn1 [Nilotinib] + N=C(N)NC(=N)NCCc1ccccc1 [Phenformin] (partner 250 µM) has a relative viability (201T; first compound 0.003162 µM) of 0.48, a relative viability (201T; first compound 0.01 µM) of 0.454 and a relative viability (201T; first compound 0.03162 µM) of 0.477. The relative viability (201T; first compound 0.1 µM) was 0.491, the relative viability (BEN; first compound 0.001 µM) was 0.264 and the relative viability (BEN; first compound 0.003162 µM) was 0.292. The relative viability (BEN; first compound 0.01 µM) was 0.237, the relative viability (BEN; first compound 0.03162 µM) was 0.259 and the relative viability (BEN; first compound 0.1 µM) was 0.289. The relative viability (COR-L 105; first compound 0.001 µM) was 0.428, the relative viability (COR-L 105; first compound 0.003162 µM) was 0.47 and the relative viability (COR-L 105; first compound 0.01 µM) was 0.581. The relative viability (COR-L 105; first compound 0.03162 µM) was 0.409, the relative viability (COR-L 105; first compound 0.1 µM) was 0.438 and the relative viability (COR-L23; first compound 0.001 µM) was 0.448. For the same compound, the relative viability (COR-L23; first compound 0.003162 µM) was 0.52, the relative viability (COR-L23; first compound 0.01 µM) was 0.591 and the relative viability (COR-L23; first compound 0.03162 µM) was 0.42. The relative viability (COR-L23; first compound 0.1 µM) was 0.45, the relative viability (EKVX; first compound 0.001 µM) was 0.231 and the relative viability (EKVX; first compound 0.003162 µM) was 0.232. For the same compound, the relative viability (EKVX; first compound 0.01 µM) was 0.248, the relative viability (EKVX; first compound 0.03162 µM) was 0.214 and the relative viability (EKVX; first compound 0.1 µM) was 0.236. The relative viability (EMC-BAC-2; first compound 0.001 µM) was 0.474, the relative viability (EMC-BAC-2; first compound 0.003162 µM) was 0.553 and the relative viability (EMC-BAC-2; first compound 0.01 µM) was 0.491. The relative viability (EMC-BAC-2; first compound 0.03162 µM) was 0.44, the relative viability (EMC-BAC-2; first compound 0.1 µM) was 0.484 and the relative viability (HCC-15; first compound 0.001 µM) was 0.436. For the same compound, the relative viability (HCC-15; first compound 0.003162 µM) was 0.598, the relative viability (HCC-15; first compound 0.01 µM) was 0.508 and the relative viability (HCC-15; first compound 0.03162 µM) was 0.331. For the same compound, the relative viability (HCC-15; first compound 0.1 µM) was 0.404, the relative viability (HCC-366; first compound 0.001 µM) was 0.623 and the relative viability (HCC-366; first compound 0.003162 µM) was 0.584. The relative viability (HCC-366; first compound 0.01 µM) was 0.655, the relative viability (HCC-366; first compound 0.03162 µM) was 0.257 and the relative viability (HCC-366; first compound 0.1 µM) was 0.555. For the same compound, the relative viability (HCC-78; first compound 0.001 µM) was 0.786, the relative viability (HCC-78; first compound 0.003162 µM) was 0.643 and the relative viability (HCC-78; first compound 0.01 µM) was 0.706. The relative viability (HCC-78; first compound 0.03162 µM) was 0.637, the relative viability (HCC-78; first compound 0.1 µM) was 0.636 and the relative viability (HOP-62; first compound 0.001 µM) was 0.512. The relative viability (HOP-62; first compound 0.003162 µM) was 0.706, the relative viability (HOP-62; first compound 0.01 µM) was 0.771 and the relative viability (HOP-62; first compound 0.03162 µM) was 0.444. It also gave a relative viability (HOP-62; first compound 0.1 µM) of 0.441, a relative viability (LK-2; first compound 0.001 µM) of 0.441 and a relative viability (LK-2; first compound 0.003162 µM) of 0.367. The relative viability (LK-2; first compound 0.01 µM) was 0.337, the relative viability (LK-2; first compound 0.03162 µM) was 0.22 and the relative viability (LK-2; first compound 0.1 µM) was 0.314. The relative viability (NCI-H1563; first compound 0.001 µM) was 0.635, the relative viability (NCI-H1563; first compound 0.003162 µM) was 0.689 and the relative viability (NCI-H1563; first compound 0.01 µM) was 0.609. It also gave a relative viability (NCI-H1563; first compound 0.03162 µM) of 0.635, a relative viability (NCI-H1563; first compound 0.1 µM) of 0.61 and a relative viability (NCI-H1734; first compound 0.001 µM) of 0.359. The relative viability (NCI-H1734; first compound 0.003162 µM) was 0.396, the relative viability (NCI-H1734; first compound 0.01 µM) was 0.368 and the relative viability (NCI-H1734; first compound 0.03162 µM) was 0.27. It also gave a relative viability (NCI-H1734; first compound 0.1 µM) of 0.3, a relative viability (NCI-H1915; first compound 0.001 µM) of 0.372 and a relative viability (NCI-H1915; first compound 0.003162 µM) of 0.394. For the same compound, the relative viability (NCI-H1915; first compound 0.01 µM) was 0.413, the relative viability (NCI-H1915; first compound 0.03162 µM) was 0.372 and the relative viability (NCI-H1915; first compound 0.1 µM) was 0.381. The relative viability (NCI-H1993; first compound 0.001 µM) was 0.554, the relative viability (NCI-H1993; first compound 0.003162 µM) was 0.55 and the relative viability (NCI-H1993; first compound 0.01 µM) was 0.522. It also gave a relative viability (NCI-H1993; first compound 0.03162 µM) of 0.482, a relative viability (NCI-H1993; first compound 0.1 µM) of 0.701 and a relative viability (NCI-H2405; first compound 0.001 µM) of 0.381. The relative viability (NCI-H2405; first compound 0.003162 µM) was 0.357, the relative viability (NCI-H2405; first compound 0.01 µM) was 0.397 and the relative viability (NCI-H2405; first compound 0.03162 µM) was 0.356. The relative viability (NCI-H2405; first compound 0.1 µM) was 0.346, the relative viability (NCI-H460; first compound 0.001 µM) was 0.298 and the relative viability (NCI-H460; first compound 0.003162 µM) was 0.805. It also gave a relative viability (NCI-H460; first compound 0.01 µM) of 1.18, a relative viability (NCI-H460; first compound 0.03162 µM) of 0.338 and a relative viability (NCI-H460; first compound 0.1 µM) of 0.106. It also gave a relative viability (NCI-H522; first compound 0.001 µM) of 0.591, a relative viability (NCI-H522; first compound 0.003162 µM) of 0.613 and a relative viability (NCI-H522; first compound 0.01 µM) of 0.719. For the same compound, the relative viability (NCI-H522; first compound 0.03162 µM) was 0.663, the relative viability (NCI-H522; first compound 0.1 µM) was 0.56 and the relative viability (NCI-H647; first compound 0.001 µM) was 0.627. For the same compound, the relative viability (NCI-H647; first compound 0.003162 µM) was 0.628, the relative viability (NCI-H647; first compound 0.01 µM) was 0.594 and the relative viability (NCI-H647; first compound 0.03162 µM) was 0.449. It also gave a relative viability (NCI-H647; first compound 0.1 µM) of 0.336, a relative viability (NCI-H661; first compound 0.001 µM) of 0.307 and a relative viability (NCI-H661; first compound 0.003162 µM) of 0.268. The relative viability (NCI-H661; first compound 0.03162 µM) was 0.279, the relative viability (NCI-H661; first compound 0.1 µM) was 0.288 and the relative viability (PC-14; first compound 0.001 µM) was 0.573. It also gave a relative viability (PC-14; first compound 0.003162 µM) of 0.538, a relative viability (PC-14; first compound 0.01 µM) of 0.546 and a relative viability (PC-14; first compound 0.03162 µM) of 0.459. It also gave a relative viability (PC-14; first compound 0.1 µM) of 0.542, a relative viability (SK-MES-1; first compound 0.001 µM) of 0.614 and a relative viability (SK-MES-1; first compound 0.003162 µM) of 0.734. The relative viability (SK-MES-1; first compound 0.01 µM) was 0.74, the relative viability (SK-MES-1; first compound 0.03162 µM) was 0.566 and the relative viability (SK-MES-1; first compound 0.1 µM) was 0.554.
